Measured values taken from patent US10898480B1, “Pharmaceutical composition for nasal delivery” (Orexo AB, priority 2019, dated 2021).

System: excised porcine nasal tissue
Assay: Ex vivo nasal mucosal absorption, static diffusion (Franz) cell
Details: diffusion measured after 7 hours, compared with the other formulations
Experimental: A standard static diffusion (Franz) cell set up was employed to set up an ex vivo model for nasal mucosa absorption, using an excised porcine nasal tissue.
Diffusion through the tissue was measured after 7 hours and permeation is shown as mean (three repeats) cumulative transport (μg/cm^2; with SD) in FIGS. 8 and 9 for naloxone and nalmefene, respectively.

benzalkonium chloride
Apparent permeation coefficient (Papp) of nalmefene: No corresponding absorption enhancement
Apparent permeation coefficient (Papp) of naloxone: No corresponding absorption enhancement
